Experimental data as given in patent US8901116B2, “Method for treating pain, anxiety or depression using carbamoyloxy alkanoyl piperazine compound” (SK Biopharmaceuticals Co., Ltd., priority 2007, dated 2014).

Assays:
Assay type in all cases: in vivo
male ICR mouse [1] = test: Hot plate test in mouse; conditions: po, p.o, 1 hour after dosing, hot plate 55° C., read-out: Hot Plate Test Increase in latency of avoidance response
How it was run: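 Male ICR mice (25–30 g) dosed orally at 30 mg/kg and placed on a 55° C. hot plate 1 h later. Latency to forefoot or hind-leg avoidance (flinching, licking, jumping) recorded; effect expressed as % increase in latency over vehicle group.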

male ICR mouse [2] = test: Elevated plus maze (EPM) test in mouse; conditions: po, p.o, 1 hour after dosing, 5 minutes observation, read-out: Elevated Plus Maze Change index in Open-Arm Time
How it was run: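 Male ICR mice (20–25 g) received test material orally at 10 mg/kg, and open-arm time on the maze was recorded over 5 min starting 1 h after dosing. Value is the change index in open-arm time: (treated − vehicle)/vehicle × 100%.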

male ICR mouse [3] = test: Acetic acid-induced writhing test in mouse; conditions: po, p.o, acetic acid i.p. 1 hour after dosing, writhing counted for 10 minutes, read-out: Writhing Test Suppression of pain response
How it was run: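 Test material given orally at 10 mg/kg to male mice (30–35 g); 1 h later 0.8% acetic acid injected i.p. Writhes counted over 10 min immediately afterwards; analgesia expressed as percent suppression of writhing versus vehicle group.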

male ICR mouse [4] = test: Head twitch potentiation induced by 5-HTP (5-HTP potentiation test) in mouse; conditions: po, 0.5 h, p.o, 5-HTP 80 mg/kg + Carbidopa 25 mg/kg i.p. 30 minutes after dosing, head twitches counted for 2 minutes, negative = 5-HT2A antagonist, read-out: 5-HTP Potentiation Increase rate in Head Twitch No.
How it was run: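 Male ICR mice (20-25 g) dosed orally at 30 mg/kg; 30 min later given 5-HTP (80 mg/kg) plus carbidopa (25 mg/kg) i.p. Head twitches counted for 2 min starting 30 min after i.p. dosing; effect expressed as % increase in twitch number versus vehicle group.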

| SMILES | change in vivo at 30 mg/kg (male ICR mouse [1]) [%] | change in vivo at 10 mg/kg (male ICR mouse [2]) [%] | inhibition in vivo at 10 mg/kg (male ICR mouse [3]) [%] | change in vivo at 30 mg/kg (male ICR mouse [4]) [%] |
| --- | --- | --- | --- | --- |
| NC(=O)O[C@H](CC(=O)N1CCN(c2ccc(O)cc2)CC1)c1ccccc1 [Example 83, (R)-carbamic acid 3-[4-(4-hydroxy)-phenylpiperazin-1-yl]-3-oxo-1-phenyl-propyl ester] | 89.3 | 52.7 | 44.5 | 40.9 |
| NC(=O)O[C@@H](CC(=O)N1CCN(c2ccc(O)cc2)CC1)c1ccccc1 [Example 84, (S)-carbamic acid 3-[4-(4-hydroxy)-phenylpiperazin-1-yl]-3-oxo-1-phenyl-propyl ester] | 13.5 | 65.6 | 32 | -37.5 |
| NC(=O)O[C@@H](CC(=O)N1CCN(c2ccc(Cl)cc2)CC1)c1ccccc1 [Example 85, (S)-carbamic acid 3-[4-(4-chloro)-phenylpiperazin-1-yl]-3-oxo-1-phenyl-propyl ester] | 25.3 | 37 | 52 | 222 |
